The record followed here is patent US11046700B2, “Substituted imidazo[1,2-a]pyrazines, pyrazolo[1,5-c]pyrimidines, pyrazolo[1,5-a]pyridines, and purines for the treatment of schistosomiasis” (Merck Patent GmbH, priority 2017, dated 2021).

Assay type in all cases: cell-based
Data set [1] has as its system S. mansoni juvenile worms. Nature of the data set: In vitro assay, S. mansoni juvenile worms. The conditions noted are these: Schistosoma mansoni, read-out: (b) Juvenile. The method, then: (§1) The routine biological assays using adult or juvenile worms and cytotoxicity assays using MRC-5 cells have been disclosed previously in Mansour, N. R., et al. (2016). “High Throughput Screening Identifies Novel Lead Compounds with Activity against Larval, Juvenile and Schistosoma mansoni PLoS Negl Trap Dis 10(4): e0004659. Cytotoxicity assays using the HepG2 cell line were carried out as described in Molecular Diversity (2015) 19, 251-261.
(b) S. mansoni juvenile worms

In the next data set the test system is S. mansoni adult worms. Nature of the data set: In vitro assay, S. mansoni adult worms. The settings on record: Schistosoma mansoni; S. mansoni adult worms, in vitro; read-out: (a) Adult. The method, then:
as §1
(a) S. mansoni adult worms

The test system of another data set is HepG2 cell line. Nature of the data set: Cytotoxicity against human HepG2 cell lines.
The mark [2] stands for this setting: S. mansoni juvenile worms, in vitro.

The structures appear in SMILES notation. Where two headings read alike, the source gives them in different places.

`C#CCOc1cc(-c2cn3c(-c4ccc5[nH]ncc5c4F)c(C(F)(F)F)nc3cn2)ccc1F` [Example 78, 3-(4-Fluoro-1H-indazol-5-yl)-6-(4-fluoro-3-prop-2-ynyloxy-phenyl)-2-trifluoromethyl-imidazo[1,2-a]pyrazine]: the IC50 in data set [1] (setting [2]) turned out to be 21 nM; in the data set with S. mansoni adult worms, 10 nM.

For the compound `COc1ccc(-c2c(CC3CC3)nc3cnc(-c4cccc(C(F)(F)F)c4)cn23)cc1O` [Example 26, 2-methoxy-5-[2-(cyclopropylmethyl)-6-[3-(trifluoromethyl)phenyl]imidazo[1,2-a]pyrazin-3-yl]phenol], the IC50 in data set [1] (setting [2]) was found to be 220 nM.

Turning to `Oc1cc(F)c(-c2c(CC(F)(F)F)nc3cnc(-c4ccc(F)c(C(F)(F)F)c4)cn23)c(F)c1` [Example 38, 3,5-difluoro-4-(6-(4-fluoro-3-(trifluoromethyl)phenyl)-2-(2,2,2-trifluoroethyl)imidazo[1,2-a]pyrazin-3-yl)phenol], in data set [1] (setting [2]), the IC50 is 140 nM.

With `CC(C)c1nc2cnc(-c3ccc(F)c(S(F)(F)(F)(F)F)c3)cn2c1-c1ccc2[nH]ncc2c1F` [Example 68, 3-(4-Fluoro-1H-indazol-5-yl)-6-(4-fluoro-3-pentafluorosulfanyl-phenyl)-2-isopropyl-imidazo[1,2-a]pyrazine], the IC50 turned out to be 10 nM in data set [1] (setting [2]) and 11 nM in the data set on S. mansoni adult worms.

`Cc1nc2cnc(-c3ccc(F)c(S(F)(F)(F)(F)F)c3)cn2c1-c1ccc2[nH]ncc2c1F` [Example 64, 3-(4-Fluoro-1H-indazol-5-yl)-6-(4-fluoro-3-pentafluorosulfanyl-phenyl)-2-methyl-imidazo[1,2-a]pyrazine]: the IC50 in data set [1] (setting [2]) was determined as 77 nM; in the data set on S. mansoni adult worms, 26 nM.

As for `COc1ccc(-c2c(C)nn3cnc(-c4cccc(C(F)(F)F)c4)cc23)cc1O` [Example 23, 2-methoxy-5-(2-methyl-5-(3-(trifluoromethyl)phenyl)pyrazolo[1,5-c]pyrimidin-3-yl)phenol], the IC50 in data set [1] (setting [2]) was 790 nM.

`Fc1ccc(-c2cn3c(-c4ccc5[nH]ncc5c4F)c(C4CCC4)nc3cn2)cc1C(F)(F)F` [Example 76, 2-Cyclobutyl-3-(4-fluoro-1H-indazol-5-yl)-6-(4-fluoro-3-trifluoromethyl-phenyl)-imidazo[1,2-a]pyrazine]: the figures for the IC50 (in data set [1] (setting [2]); in the data set with S. mansoni adult worms) were 36 nM and 37 nM, respectively.

For the compound `Fc1c(-c2c(C(F)(F)F)nc3cnc(-c4cccc(C(F)(F)F)c4)cn23)ccc2[nH]ncc12` [Example 70, 3-(4-Fluoro-1H-indazol-5-yl)-2-trifluoromethyl-6-(3-trifluoromethyl-phenyl)-imidazo[1,2-a]pyrazine], the IC50 in data set [1] (setting [2]) was determined as 41 nM; in the data set on S. mansoni adult worms, 25 nM.

Take `CCCc1nc2cnc(-c3cccc(C(F)(F)F)c3)cn2c1-c1ccc(OC)c(O)c1` [Example 18, 2-methoxy-5-[2-(propan-1-yl)-6-[3-(trifluoromethyl)phenyl]imidazo[1,2-a]pyrazin-3-yl]phenol]: the IC50 in data set [1] (setting [2]) came to 290 nM.

Regarding `Fc1ccc(-c2cn3c(-c4ccc5[nH]ncc5c4F)c(C4CC4)nc3cn2)cc1C(F)(F)F` [Example 43, 2-cyclopropyl-3-(4-fluoro-1H-indazol-5-yl)-6-(4-fluoro-3-(trifluoromethyl)phenyl)imidazo[1,2-a]pyrazine], the IC50 in data set [1] (setting [2]) amounted to 110 nM.

As for `CC(C)c1cc(-c2cn3c(-c4c(F)cc(O)cc4F)c(C4CC4)nc3cn2)ccc1F` [Example 80, 4-[2-Cyclopropyl-6-(4-fluoro-3-isopropyl-phenyl)-imidazo[1,2-a]pyrazin-3-yl]-3,5-difluoro-phenol], the figures for the IC50 (in data set [1] (setting [2]); in the data set on S. mansoni adult worms) were 5 nM and 4 nM, respectively.

As for `COc1ccc(-c2c(C(C)C)nc3cnc(-c4ccc(F)c(C(F)(F)F)c4)cn23)cc1O` [Example 27, 2-methoxy-5-[2-(propan-2-yl)-6-[4-fluoro-3-(trifluoromethyl)phenyl]imidazo[1,2-a]pyrazin-3-yl]phenol], the IC50 in data set [1] (setting [2]) was 149 nM; in the data set on S. mansoni adult worms, < 49 nM.

With `COc1cc(-c2c(C)nc3cnc(-c4cccc(C(F)(F)F)c4)cn23)ccc1O` [Example 5, 2-methoxy-4-(2-methyl-6-(3-(trifluoromethyl)phenyl)imidazo[1,2-a]pyrazin-3-yl)], the IC50 is 1270 nM in data set [1] (setting [2]) and 520 nM with S. mansoni adult worms.

`Oc1ccc(-c2c(C3CC3)nc3cnc(-c4cccc(C(F)(F)F)c4)cn23)c(F)c1` [Example 14, 3-fluoro-4-[2-cyclopropyl-6-[3-(trifluoromethyl)phenyl]imidazo[1,2-a]pyrazin-3-yl]phenol]: in data set [1] (setting [2]), the IC50 came out at 230 nM.

`COc1ccc(-c2c(C3CC3)nc3cnc(-c4cccc(C(F)(F)F)c4)cn23)cc1O` [Example 13, 2-methoxy-5-[2-cyclopropyl-6-[3-(trifluoromethyl)phenyl]imidazo[1,2-a]pyrazin-3-yl]phenol]: the IC50 in data set [1] (setting [2]) came out at 63 nM; in the data set on S. mansoni adult worms, 72 nM.

`Cc1nc2cnc(-c3cccc(S(F)(F)(F)(F)F)c3)cn2c1-c1c(F)cc(O)cc1F` [Example 31, 3,5-difluoro-4-[2-methyl-6-[3-(pentafluorosulfanyl)phenyl]imidazo[1,2-a]pyrazin-3-yl]phenol]: the IC50 in data set [1] (setting [2]) is 100 nM.

Consider `Oc1ccc(-c2c(C(F)(F)F)nc3cnc(-c4cccc(C(F)(F)F)c4)cn23)c(F)c1` [Example 12, 3-fluoro-4-[2-trifluoromethyl-6-[3-(trifluoromethyl)phenyl]imidazo[1,2-a]pyrazin-3-yl]phenol], for which the results for the IC50 (in data set [1] (setting [2]); with S. mansoni adult worms) were 250 nM and < 49 nM, respectively.

For `Oc1ccc(-c2c(C(F)F)nc3cnc(-c4cccc(C(F)(F)F)c4)cn23)c(F)c1` [Example 11, 3-fluoro-4-[2-difluoromethyl-6-[3-(trifluoromethyl)phenyl]imidazo[1,2-a]pyrazin-3-yl]phenol], the IC50 in data set [1] (setting [2]) came to 490 nM.

For `CC(C)c1nc2cnc(-c3cccc(Br)c3)cn2c1-c1ccc2[nH]ncc2c1F` [Example 73, 6-(3-Bromo-phenyl)-3-(4-fluoro-1H-indazol-5-yl)-2-isopropyl-imidazo[1,2-a]pyrazine], the IC50 came to 27 nM in data set [1] (setting [2]) and 36 nM in the data set with S. mansoni adult worms.

In the case of `COc1cc(O)ccc1-c1c(C(C)C)nc2cnc(-c3cccc(C(F)(F)F)c3)cn12` [Example 20, 4-(2-isopropyl-6-(3-(trifluoromethyl)phenyl)imidazo[1,2-a]pyrazin-3-yl)-3-methoxyphenol], the IC50 in data set [1] (setting [2]) was determined as 1040 nM; in the data set with S. mansoni adult worms, 920 nM.

For the compound `Cc1nc2cnc(-c3ccc(F)c(C(F)(F)F)c3)cn2c1-c1c(F)cc(OP(=O)(O)O)cc1F` [Example 41, 3,5-difluoro-4-{6-[4-fluoro-3-(trifluoromethyl)phenyl]-2-methyl-imidazo[1,2-a]pyrazin-3-yl}phenoxyphosphonic acid], in the data set on HepG2 cell line, the “(e) Cytotox HepG2” value was determined as 6.8 µM. Besides, the IC50 in data set [1] came to 100 nM.

With `Fc1ccc(-c2cn3c(-c4ccc5[nH]ncc5c4F)c(C4CC4)nc3cn2)cc1C(F)(F)C(F)(F)F` [Example 54, 5-{2-cyclopropyl-6-[4-fluoro-3-(1,1,2,2,2-pentafluoroethyl)phenyl]imidazo[1,2-a]pyrazin-3-yl}-4-fluoro-1H-indazole], the IC50 was 37 nM in data set [1] (setting [2]) and 23 nM in the data set on S. mansoni adult worms.

Take `Oc1cc(F)c(-c2c(C3CC3)nn3cnc(-c4ccc(F)c(C(F)(F)F)c4)cc23)c(F)c1` [Example 60, 4-[2-Cyclopropyl-5-(4-fluoro-3-trifluoromethyl-phenyl)-pyrazolo[1,5-c]pyrimidin-3-yl]-3,5-difluoro-phenol]: the values for the IC50 (in data set [1] (setting [2]); with S. mansoni adult worms) were 21 nM and 17 nM, respectively.

As to `Cc1nn2cnc(-c3ccc(F)c(C(F)(F)F)c3)cc2c1-c1c(F)cc(O)cc1F` [Example 42, 3,5-difluoro-4-(5-(4-fluoro-3-(trifluoromethyl)phenyl)-2-methylpyrazolo[1,5-c]pyrimidin-3-yl)phenol], the IC50 in data set [1] (setting [2]) was 110 nM.

Regarding `COc1ccc(-c2c(C(C)C)nc3cnc(-c4cccc(C(F)(F)F)c4)cn23)cc1OP(=O)(O)O` [Example 28, 2-methoxy-5-[2-(propan-2-yl)-6-[3-(trifluoromethyl)phenyl]imidazo[1,2-a]pyrazin-3-yl]phenoxyphosphonic acid], the “(e) Cytotox HepG2” value in the data set on HepG2 cell line is 19.2 µM. Besides, in data set [1], the IC50 worked out at 183 nM.

Regarding `COc1ccc(-c2c(C(C)C)nn3cnc(-c4cccc(C(F)(F)F)c4)cc23)cc1O` [Example 25, 5-(2-isopropyl-5-(3-(trifluoromethyl)phenyl)pyrazolo[1,5-c]pyrimidin-3-yl)-2-methoxyphenol], the IC50 in data set [1] (setting [2]) stood at 110 nM.

Take `CC(C)c1nn2cnc(-c3ccc(F)c(C(F)(F)F)c3)cc2c1-c1ccc2[nH]ncc2c1F` [Example 61, 3-(4-Fluoro-1H-indazol-5-yl)-5-(4-fluoro-3-trifluoromethyl-phenyl)-2-isopropylpyrazolo[1,5-c]pyrimidine]: the values for the IC50 (in data set [1] (setting [2]); with S. mansoni adult worms) were 60 nM and 37 nM, respectively.

With `Cc1nc2cnc(-c3cccc(C(F)(F)F)c3)cn2c1-c1ccc(O)cc1` [Example 4, 4-[2-methyl-6-[3-(trifluoromethyl)phenyl]imidazo[1,2-a]pyrazin-3-yl]phenol], the values for the IC50 (in data set [1] (setting [2]); with S. mansoni adult worms) were 1420 nM and 490 nM, respectively.

Take `Fc1ccc(-c2cc3c(-c4ccc5[nH]ncc5c4F)c(C4CC4)nn3cn2)cc1C(F)(F)C(F)(F)F` [Example 59, 2-Cyclopropyl-3-(4-fluoro-1H-indazol-5-yl)-5-(4-fluoro-3-pentafluoroethyl-phenyl)-pyrazolo[1,5-c]pyrimidine]: the IC50 in data set [1] (setting [2]) came to 36 nM; with S. mansoni adult worms, 66 nM.

`Fc1ccc(-c2cn3c(-c4ccc5[nH]ncc5c4F)c(C(F)(F)F)nc3cn2)cc1Br` [Example 85, 6-(3-Bromo-4-fluoro-phenyl)-3-(4-fluoro-1H-indazol-5-yl)-2-trifluoromethyl-imidazo[1,2-a]pyrazine]: the figures for the IC50 (in data set [1] (setting [2]); with S. mansoni adult worms) were 7 nM and 48 nM, respectively.
